Measured values as given in PubChem BioAssay (NCI).
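96-well plates; 48 h exposure; 5 concentrations. Endpoints by linear interpolation between flanking doses. Not reached: highest tested concentration assigned. At the GI50, growth is halved. Definition used: TGI = concentration required for complete inhibition of growth.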

Columns and labels:
Experiment in all cases: NCI-60 cell line screen, 48 h; in the data active means GI50 below about 0.43 µM; inactive means the rest
786-0 renal = test system: 786-0 renal
A549 NSCLC = test system: A549 NSCLC
ACHN renal = test system: ACHN renal
BT-549 breast = test system: BT-549 breast
CAKI-1 renal = test system: CAKI-1 renal
CCRF-CEM leukemia = test system: CCRF-CEM leukemia
COLO 205 colon = test system: COLO 205 colon
DU-145 prostate = test system: DU-145 prostate
EKVX NSCLC = test system: EKVX NSCLC
HCC-2998 colon = test system: HCC-2998 colon
HCT-116 colon = test system: HCT-116 colon
HCT-15 colon = test system: HCT-15 colon
HL-60(TB) leukemia = test system: HL-60(TB) leukemia
HOP-62 NSCLC = test system: HOP-62 NSCLC
HS 578T breast = test system: HS 578T breast
HT29 colon = test system: HT29 colon
IGROV1 ovarian = test system: IGROV1 ovarian
KM12 colon = test system: KM12 colon
LOX IMVI melanoma = test system: LOX IMVI melanoma
M14 melanoma = test system: M14 melanoma
MALME-3M melanoma = test system: MALME-3M melanoma
MCF7 breast = test system: MCF7 breast
MDA-MB-231 breast = test system: MDA-MB-231 breast
MDA-MB-435 = test system: MDA-MB-435
MOLT-4 leukemia = test system: MOLT-4 leukemia
NCI-H226 lung = test system: NCI-H226 lung
NCI-H23 lung = test system: NCI-H23 lung
NCI-H460 lung = test system: NCI-H460 lung
NCI-H522 lung = test system: NCI-H522 lung
NCI/ADR-RES ovarian = test system: NCI/ADR-RES ovarian
OVCAR-3 ovarian = test system: OVCAR-3 ovarian
OVCAR-4 ovarian = test system: OVCAR-4 ovarian
OVCAR-5 ovarian = test system: OVCAR-5 ovarian
OVCAR-8 ovarian = test system: OVCAR-8 ovarian
PC-3 prostate = test system: PC-3 prostate
RPMI-8226 leukemia = test system: RPMI-8226 leukemia
RXF 393 renal = test system: RXF 393 renal
SF-268 CNS = test system: SF-268 CNS
SF-295 CNS = test system: SF-295 CNS
SF-539 CNS = test system: SF-539 CNS
SK-MEL-2 melanoma = test system: SK-MEL-2 melanoma
SK-MEL-28 melanoma = test system: SK-MEL-28 melanoma
SK-MEL-5 melanoma = test system: SK-MEL-5 melanoma
SK-OV-3 ovarian = test system: SK-OV-3 ovarian
SN12C renal = test system: SN12C renal
SNB-19 CNS = test system: SNB-19 CNS
SNB-75 CNS = test system: SNB-75 CNS
SR leukemia = test system: SR leukemia
SW-620 colon = test system: SW-620 colon
T-47D breast = test system: T-47D breast
TK-10 renal = test system: TK-10 renal
U251 CNS = test system: U251 CNS
UACC-257 melanoma = test system: UACC-257 melanoma
UACC-62 melanoma = test system: UACC-62 melanoma
UO-31 renal = test system: UO-31 renal

C=C(NC(=O)C(=C)NC(=O)c1csc(C2=NC3c4csc(n4)C4NC(=O)c5csc(n5)C(C(C)(O)C(C)O)NC(=O)C5CSC(=N5)C(=CC)NC(=O)C(C(C)O)NC(=O)c5csc(n5)C3(CC2)NC(=O)C(C)NC(=O)C(=C)NC(=O)C(C)NC(=O)C(C(C)CC)NC2C=Cc3c(C(C)O)cc(nc3C2O)C(=O)OC4C)n1)C(N)=O (centres undefined)
5.24 µM: TGI (CCRF-CEM leukemia)
13.7 µM: TGI (COLO 205 colon)
32.6 µM: TGI (UACC-62 melanoma)
4.09 µM: TGI (HCT-116 colon)
12.7 µM: TGI (M14 melanoma)
4.71 µM: TGI (BT-549 breast)
80.7 µM: TGI (T-47D breast)
7.71 µM: TGI (NCI-H226 lung)
66.9 µM: TGI (SF-295 CNS)
7.88 µM: TGI (RXF 393 renal)
79.9 µM: TGI (OVCAR-5 ovarian)
5.55 µM: TGI (MOLT-4 leukemia)
4.76 µM: TGI (NCI-H522 lung)
19.8 µM: TGI (SK-MEL-5 melanoma)
42.9 µM: TGI (SF-539 CNS)
inactive: GI50 (786-0 renal) 5.49 µM | GI50 (A549 NSCLC) 57.3 µM | GI50 (ACHN renal) 8.25 µM | GI50 (BT-549 breast) 2.1 µM | GI50 (CAKI-1 renal) 14.6 µM | GI50 (CCRF-CEM leukemia) 1.83 µM | GI50 (COLO 205 colon) 2.72 µM | GI50 (DU-145 prostate) 58.7 µM | GI50 (EKVX NSCLC) 32.5 µM | GI50 (HCC-2998 colon) 28.8 µM | GI50 (HCT-116 colon) 1.74 µM | GI50 (HCT-15 colon) 65.6 µM | GI50 (HL-60(TB) leukemia) 5.13 µM | GI50 (HOP-62 NSCLC) 22.9 µM | GI50 (HS 578T breast) > 100 µM | GI50 (HT29 colon) 10.4 µM | GI50 (IGROV1 ovarian) 64.8 µM | GI50 (KM12 colon) 5.52 µM | GI50 (LOX IMVI melanoma) 3.7 µM | GI50 (M14 melanoma) 3.49 µM | GI50 (MALME-3M melanoma) 3.14 µM | GI50 (MCF7 breast) 5.7 µM | GI50 (MDA-MB-231 breast) 6.46 µM | GI50 (MDA-MB-435) 3.96 µM | GI50 (MOLT-4 leukemia) 2.08 µM | GI50 (NCI-H226 lung) 2.18 µM | GI50 (NCI-H23 lung) 13.7 µM | GI50 (NCI-H460 lung) 17 µM | GI50 (NCI-H522 lung) 2.07 µM | GI50 (NCI/ADR-RES ovarian) > 100 µM | GI50 (OVCAR-3 ovarian) 6.59 µM | GI50 (OVCAR-4 ovarian) 9.45 µM | GI50 (OVCAR-5 ovarian) 25.5 µM | GI50 (OVCAR-8 ovarian) 7.02 µM | GI50 (PC-3 prostate) 77.5 µM | GI50 (RPMI-8226 leukemia) 1.79 µM | GI50 (RXF 393 renal) 2.44 µM | GI50 (SF-268 CNS) 19.6 µM | GI50 (SF-295 CNS) 21.2 µM | GI50 (SF-539 CNS) 4.62 µM | GI50 (SK-MEL-2 melanoma) 19 µM | GI50 (SK-MEL-28 melanoma) 7.09 µM | GI50 (SK-MEL-5 melanoma) 4.69 µM | GI50 (SK-OV-3 ovarian) 54 µM | GI50 (SN12C renal) 19.6 µM | GI50 (SNB-19 CNS) 54 µM | GI50 (SNB-75 CNS) 8.12 µM | GI50 (SW-620 colon) 2.73 µM | GI50 (T-47D breast) 4.41 µM | GI50 (TK-10 renal) 65.5 µM | GI50 (U251 CNS) 9.37 µM | GI50 (UACC-257 melanoma) 29.4 µM | GI50 (UACC-62 melanoma) 4.34 µM | GI50 (UO-31 renal) 11.4 µM
19.7 µM: TGI (786-0 renal) | TGI (RPMI-8226 leukemia)
> 100 µM: TGI (A549 NSCLC) | TGI (ACHN renal) | TGI (CAKI-1 renal) | TGI (DU-145 prostate) | TGI (EKVX NSCLC) | TGI (HCC-2998 colon) | TGI (HCT-15 colon) | TGI (HOP-62 NSCLC) | TGI (HS 578T breast) | TGI (HT29 colon) | TGI (IGROV1 ovarian) | TGI (LOX IMVI melanoma) | TGI (MALME-3M melanoma) | TGI (MCF7 breast) | TGI (MDA-MB-231 breast) | TGI (MDA-MB-435) | TGI (NCI-H23 lung) | TGI (NCI-H460 lung) | TGI (NCI/ADR-RES ovarian) | TGI (OVCAR-3 ovarian) | TGI (OVCAR-4 ovarian) | TGI (OVCAR-8 ovarian) | TGI (PC-3 prostate) | TGI (SF-268 CNS) | TGI (SK-MEL-2 melanoma) | TGI (SK-OV-3 ovarian) | TGI (SN12C renal) | TGI (SNB-19 CNS) | TGI (SW-620 colon) | TGI (TK-10 renal) | TGI (UACC-257 melanoma) | TGI (UO-31 renal)
69.1 µM: TGI (SR leukemia)
27.5 µM: TGI (KM12 colon)
83.7 µM: TGI (SNB-75 CNS)
31.7 µM: TGI (HL-60(TB) leukemia)
24.5 µM: TGI (SK-MEL-28 melanoma)
31.8 µM: TGI (U251 CNS)
